Data set [1] is classed as physicochemical.
The format of data set [2] is physicochemical. The source holds these as a separate data set.

This note sets out measurements from patent US9638702B2 (priority 2001, dated 2017).

Read-outs that look alike come from different tables or passages of the source.

Take poly-L-lysine: the absorbance plateau entry in data set [1] (pH 7) is reported as “approximately 0.22”; in data set [1] (pH 11), “approximately 0.12”. For the same substance, the CD minimum result in data set [2] (pH 7) was “approximately 205 nm”; in data set [2] (pH 11) it was “approximately 216 nm”.
